# Measured values as given in patent US20230220021A1, “CYCLIC PEPTIDE INHIBITORS OF PSD-95 AND USES THEREOF” (University of Copenhagen, priority 2020, published 2023).
# Like-named read-outs stand apart in the source and are kept apart here. Where a SMILES comes first, the peptide text is derived from it. Where no end group is shown, it is not given here. [ ]: non-standard residue; d: D form.
# Legend:
# PSD-95-PDZ2 [1] = biological target: T1, PSD-95-PDZ2 (Homo sapiens, UniProt P78352); experiment: Isothermal titration calorimetry (ITC); type: binding; settings: for fold improved binding affinity compared to the wild-type peptide: ITC Kd
# T1 construct: 7xHis (N); made in house; host or cells: Escherichia coli B21 pLys (for the mutants, 'as previously described')
# Description: Isothermal titration calorimetry (ITC). The ITC assays were performed in NaPi 50 nM, 50 nM NaCl, pH 7.2 buffer filtered with a Corning® bottle-top vacuum filter system of a pore size of 0.22 μM, that was used to dissolve the peptides. Proteins were dialyzed against this buffer using Amicon® Ultra-15 centrifugal filter units, with a MWCO 3000 Da.
# This assay was performed on an ITC200. The instrument differential power (DP) was set to 10 and the syringe rotating speed to 600 RPM. The assay setup consisted of introducing the protein inside the cell and the peptide (titrant) on the syringe. Calorimetry was performed at 25° C. Each analysis was performed in triplicates. Furthermore, several runs of peptide into buffer were performed in order to remove injection residual heat. Runs were analyzed with Origin 7.0 software (OriginLab).
# PSD-95-PDZ2 [2] = biological target: T1, PSD-95-PDZ2; experiment: Fluorescence polarization (FP) competition assay against cyclic nNOS TAMRA probe; type: binding; settings: for Ki: FP competition, cyclic nNOS TAMRA probe, mean of triplicates, N.B. = not binding, read-out: Ki; for Relative Ki (Ki mut/Ki WT): FP inhibition constant normalized to WT value
# PSD-95-PDZ2 [3] = biological target: T2, PSD-95-PDZ2 (Homo sapiens, UniProt P78352, V178C); experiment: SPOT peptide array screening with TAMRA labelled PSD-95-PDZ2; type: binding; settings: for Normalized SPOT fluorescence (Mut/WT): SPOT array, TAMRA labelled PSD-95-PDZ2-V178C, normalized to WT
# T2 construct: screened with the TAMRA labelled PSD-95-PDZ2-V178C domain; 7xHis (N); made in house
# Procedure, shortened: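 First, arrays were blocked 1 h and scanned to record background. Next, 50 nM labelled PDZ2-V178C in PBS pH 7.2 with 0.5% BSA bound for 1 h protected from light. Finally, after washes, 532 nm fluorescence was measured and background-corrected.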
# plasmin = plasmin (Homo sapiens, UniProt P00747); experiment: In vitro plasmin stability; type: in vitro ADME; settings: 100 μM ligand, PBS with plasmin (10 μg/mL), 37° C., 0 to 360 minutes, mean n=3
# Description: The in vitro plasmin stability of peptides with SEQ ID NOs: 12, 68, 99 and 163 were determined by incubating 100 μM of ligand in phosphate buffered saline (PBS) supplemented with plasmin (10 μg/mL) at 37° C. for 0 to 360 minutes. At selected time points during the incubation, the ligands were extracted from 80 μL of assay matrix by treatment with 80 μL of 50% acetonitrile (ACN). The samples were filtered and analysed by UPLC to determine the amount of ligand remaining. LC-MS analysis was performed to confirm ligand integrity and identify cleavage sites.
# [4] = plasmin (10 μg/mL) in phosphate buffered saline
# Sequence of plasmin (P00747 581-810 limits assumed, species assumed): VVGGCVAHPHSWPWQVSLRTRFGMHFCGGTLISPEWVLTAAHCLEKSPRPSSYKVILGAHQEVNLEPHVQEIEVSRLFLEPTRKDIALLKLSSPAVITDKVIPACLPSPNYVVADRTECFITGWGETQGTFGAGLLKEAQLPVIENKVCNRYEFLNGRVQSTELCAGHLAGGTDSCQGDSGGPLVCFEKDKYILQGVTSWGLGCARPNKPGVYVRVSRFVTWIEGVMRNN
# Sequence of plasmin (P00747 97-580 partner limits assumed, species assumed): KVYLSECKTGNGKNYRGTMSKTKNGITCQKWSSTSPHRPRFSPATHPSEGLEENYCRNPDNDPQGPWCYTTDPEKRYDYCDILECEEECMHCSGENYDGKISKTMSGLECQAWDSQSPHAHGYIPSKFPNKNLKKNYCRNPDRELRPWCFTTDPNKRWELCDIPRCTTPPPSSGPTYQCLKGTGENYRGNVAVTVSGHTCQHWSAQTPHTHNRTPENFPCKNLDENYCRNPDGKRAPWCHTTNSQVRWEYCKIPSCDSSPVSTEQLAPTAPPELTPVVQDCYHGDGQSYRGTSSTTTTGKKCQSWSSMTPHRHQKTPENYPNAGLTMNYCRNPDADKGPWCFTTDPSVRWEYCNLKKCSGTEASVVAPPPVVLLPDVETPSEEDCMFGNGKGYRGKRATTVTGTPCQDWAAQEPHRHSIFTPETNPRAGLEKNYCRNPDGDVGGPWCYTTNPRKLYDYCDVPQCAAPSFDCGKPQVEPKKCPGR
compound,measurement,setting,value
CC[C@H](C)[C@@H]1NC(=O)[C@H]([C@@H](C)O)NC(=O)[C@H](CCCCN)NC(=O)[C@@H]2CCCN2C(=O)[C@H]([C@@H](C)O)NC(=O)CNC(=O)[C@H](CC(=O)O)NC(=O)CNC(=O)[C@H]([C@@H](C)O)NC(=O)[C@H](Cc2ccccc2)NC(=O)[C@H]([C@@H](C)O)NC(=O)[C@H]([C@@H](C)O)NC(=O)[C@H](CCC(=O)O)NC(=O)[C@H](CC(C)C)NC(=O)[C@H](Cc2c[nH]cn2)NC(=O)[C@H]([C@@H](C)O)NC(=O)[C@H](CCC(N)=O)NC(=O)CNC(=O)[C@H]2CCCN2C(=O)[C@H](CCC(N)=O)NC(=O)[C@H]([C@@H](C)O)NC(=O)[C@H](C(C)C)NC(=O)[C@H](CCCNC(=N)N)NC1=O [SEQ ID NO: 12],Kd,"PSD-95-PDZ2 [1]; 25° C., tested up to 100 μM, read-out: affinity (Kd) by ITC",2200 ± 300 nM
CC[C@H](C)[C@@H]1NC(=O)[C@H]([C@@H](C)O)NC(=O)[C@H](CCCCN)NC(=O)[C@@H]2CCCN2C(=O)[C@H](CCC(=O)O)NC(=O)CNC(=O)[C@H](CC(=O)O)NC(=O)CNC(=O)[C@H](Cc2c[nH]c3ccccc23)NC(=O)[C@H](Cc2ccccc2)NC(=O)[C@H]([C@@H](C)O)NC(=O)[C@H]([C@@H](C)O)NC(=O)[C@H](CCC(=O)O)NC(=O)[C@H](CC(C)C)NC(=O)[C@H](Cc2c[nH]cn2)NC(=O)[C@H]([C@@H](C)O)NC(=O)[C@H](CCC(N)=O)NC(=O)CNC(=O)[C@H]2CCCN2C(=O)[C@H](CCC(N)=O)NC(=O)[C@H]([C@@H](C)O)NC(=O)[C@H](C(C)C)NC(=O)[C@H](CCCNC(=N)N)NC1=O [SEQ ID NO: 14] (cyclo(THLETTFWGDGEPKTIRVTQ[dP]GQ)),fold improved binding affinity compared to the wild-type peptide,PSD-95-PDZ2 [1],16 fold
CC[C@H](C)[C@@H]1NC(=O)[C@H]([C@@H](C)O)NC(=O)[C@H](CCCCN)NC(=O)[C@@H]2CCCN2C(=O)[C@H](CCC(=O)O)NC(=O)CNC(=O)[C@H](CC(=O)O)NC(=O)CNC(=O)[C@H](Cc2c[nH]c3ccccc23)NC(=O)[C@H](Cc2ccccc2)NC(=O)[C@H]([C@@H](C)O)NC(=O)[C@H]([C@@H](C)O)NC(=O)[C@H](CCC(=O)O)NC(=O)[C@H](CC(C)C)NC(=O)[C@H](Cc2cncn2C)NC(=O)[C@H]([C@@H](C)O)NC(=O)[C@H](CCC(N)=O)NC(=O)CNC(=O)[C@H]2CCCN2C(=O)[C@H](CCC(N)=O)NC(=O)[C@H]([C@@H](C)O)NC(=O)[C@H](C(C)C)NC(=O)[C@H](CCCNC(=N)N)NC1=O [SEQ ID NO: 16],fold improved binding affinity compared to the wild-type peptide,PSD-95-PDZ2 [1],75 fold
CC[C@H](C)[C@@H]1NC(=O)[C@H]([C@@H](C)O)NC(=O)[C@H](CCCCN)NC(=O)[C@@H]2CCCN2C(=O)[C@H](CCC(=O)O)NC(=O)CNC(=O)[C@H](CC(=O)O)NC(=O)CNC(=O)[C@H](Cc2c[nH]c3ccccc23)NC(=O)[C@H](Cc2ccccc2)NC(=O)[C@H]([C@@H](C)O)NC(=O)[C@H]([C@@H](C)O)NC(=O)[C@H](CCC(=O)O)NC(=O)[C@H](CC(C)C)NC(=O)[C@H](Cc2c[nH]cn2)NC(=O)[C@H]([C@@H](C)O)NC(=O)[C@H](CCC(N)=O)NC(=O)CNC(=O)[C@H]2CCCN2C(=O)[C@H](CCC(N)=O)NC(=O)[C@H]([C@@H](C)O)NC(=O)[C@H](C(C)C)NC(=O)[C@H](CCCNC(=N)N)NC1=O [compound 14] (cyclo(THLETTFWGDGEPKTIRVTQ[dP]GQ)),Ki,PSD-95-PDZ2 [2],110 nM
same,Average (fluorescence raw data),"PSD-95-PDZ2 [3]; non-proteogenic AA scan, Hit1(T112W T116E) peptide scaffold, SPOT array incubated with TAMRA-labelled PSD-95-PDZ2, average of Pep. 1-3",10.70 10^6
same,Fluor. Pep. 1 (fluorescence raw data),"PSD-95-PDZ2 [3]; non-proteogenic AA scan, Hit1(T112W T116E) peptide scaffold, SPOT array incubated with TAMRA-labelled PSD-95-PDZ2, replicate peptide 1",9.88 10^6
same,Fluor. Pep. 2 (fluorescence raw data),"PSD-95-PDZ2 [3]; non-proteogenic AA scan, Hit1(T112W T116E) peptide scaffold, SPOT array incubated with TAMRA-labelled PSD-95-PDZ2, replicate peptide 2",12.86 10^6
same,Fluor. Pep. 3 (fluorescence raw data),"PSD-95-PDZ2 [3]; non-proteogenic AA scan, Hit1(T112W T116E) peptide scaffold, SPOT array incubated with TAMRA-labelled PSD-95-PDZ2, replicate peptide 3",9.36 10^6
same,ΔH,"PSD-95-PDZ2 [1]; ITC, 25° C.",-7.208 ± 0.8381 kcal/mol
same,−ΔS*T,"PSD-95-PDZ2 [1]; ITC, 25° C.",-2.1487 ± 0.759 kcal/mol
same,Kd,"PSD-95-PDZ2 [1]; ITC, 25° C., read-out: Kd",139 ± 18.2 nM
CC[C@H](C)[C@@H]1NC(=O)[C@H]([C@@H](C)O)NC(=O)[C@H](CCCCN)NC(=O)[C@@H]2CCCN2C(=O)[C@H](CCC(=O)O)NC(=O)CNC(=O)[C@H](CC(=O)O)NC(=O)CNC(=O)[C@H](Cc2c[nH]c3ccccc23)NC(=O)[C@H](Cc2ccccc2)NC(=O)[C@H]([C@@H](C)O)NC(=O)[C@H]([C@@H](C)O)NC(=O)[C@H](CCC(=O)O)NC(=O)[C@H](CC(C)C)NC(=O)[C@H](Cc2cncn2C)NC(=O)[C@H]([C@@H](C)O)NC(=O)[C@H](CCC(N)=O)NC(=O)CNC(=O)[C@H]2CCCN2C(=O)[C@H](CCC(N)=O)NC(=O)[C@H]([C@@H](C)O)NC(=O)[C@H](C(C)C)NC(=O)[C@H](CCCNC(=N)N)NC1=O [compound 16],ΔH,"PSD-95-PDZ2 [1]; ITC, 25° C.",-6.6378 ± 0.1229 kcal/mol
same,−ΔS*T,"PSD-95-PDZ2 [1]; ITC, 25° C.",-3.6598 ± 0.239 kcal/mol
CC[C@H](C)[C@@H]1NC(=O)[C@H]([C@@H](C)O)NC(=O)[C@H](C)NC(=O)[C@@H]2CCCN2C(=O)[C@H]([C@@H](C)O)NC(=O)CNC(=O)[C@H](CC(=O)O)NC(=O)CNC(=O)[C@H]([C@@H](C)O)NC(=O)[C@H](Cc2ccccc2)NC(=O)[C@H]([C@@H](C)O)NC(=O)[C@H]([C@@H](C)O)NC(=O)[C@H](CCC(=O)O)NC(=O)[C@H](CC(C)C)NC(=O)[C@H](Cc2c[nH]cn2)NC(=O)[C@H]([C@@H](C)O)NC(=O)[C@H](CCC(N)=O)NC(=O)CNC(=O)[C@H]2CCCN2C(=O)[C@H](CCC(N)=O)NC(=O)[C@H]([C@@H](C)O)NC(=O)[C@H](C(C)C)NC(=O)[C@H](CCCNC(=N)N)NC1=O [compound 68] (cyclo(THLETTFTGDGTPATIRVTQ[dP]GQ)),Ki,PSD-95-PDZ2 [2],1430 nM
same,Relative Ki (Ki mut/Ki WT),PSD-95-PDZ2 [2],0.95
same,half-life at 100 μM,plasmin; [4],6 h
same,Normalized SPOT fluorescence (Mut/WT),PSD-95-PDZ2 [3],0.39
CC[C@H](C)[C@@H]1NC(=O)[C@H]([C@@H](C)O)NC(=O)[C@H](CCCCN)NC(=O)[C@@H]2CCCN2C(=O)[C@H]([C@@H](C)O)NC(=O)CNC(=O)[C@H](CC(=O)O)NC(=O)CNC(=O)[C@H]([C@@H](C)O)NC(=O)[C@H](Cc2ccccc2)NC(=O)[C@H]([C@@H](C)O)NC(=O)[C@H]([C@@H](C)O)NC(=O)[C@H](CCC(=O)O)NC(=O)[C@H](CC(C)C)NC(=O)[C@H](Cc2c[nH]cn2)NC(=O)[C@H]([C@@H](C)O)NC(=O)[C@H](CCC(N)=O)NC(=O)CNC(=O)[C@H]2CCCN2C(=O)[C@H](C)NC(=O)[C@H]([C@@H](C)O)NC(=O)[C@H](C(C)C)NC(=O)[C@H](CCCNC(=N)N)NC1=O [compound 74] (cyclo(THLETTFTGDGTPKTIRVTA[dP]GQ)),Relative Ki (Ki mut/Ki WT),PSD-95-PDZ2 [2],1.01
same,Normalized SPOT fluorescence (Mut/WT),PSD-95-PDZ2 [3],0.42
CC[C@H](C)[C@@H]1NC(=O)[C@H]([C@@H](C)O)NC(=O)[C@H](CCCCN)NC(=O)[C@@H]2CCCN2C(=O)[C@H]([C@@H](C)O)NC(=O)CNC(=O)[C@H](CC(=O)O)NC(=O)CNC(=O)[C@H]([C@@H](C)O)NC(=O)[C@H](Cc2ccccc2)NC(=O)[C@H]([C@@H](C)O)NC(=O)[C@H]([C@@H](C)O)NC(=O)[C@H](CCC(=O)O)NC(=O)[C@H](CC(C)C)NC(=O)[C@H](Cc2c[nH]cn2)NC(=O)[C@H]([C@@H](C)O)NC(=O)[C@H](CCC(N)=O)NC(=O)CNC(=O)[C@H]2CCCN2C(=O)[C@H](CCC(N)=O)NC(=O)[C@H]([C@@H](C)O)NC(=O)[C@H](C(C)C)NC(=O)[C@H](CCCNC(=N)N)N(C)C1=O [compound 99],Ki,PSD-95-PDZ2 [2],990 nM
same,half-life at 100 μM,plasmin; [4],2.83 h
CC[C@H](C)[C@@H]1NC(=O)[C@H]([C@@H](C)O)NC(=O)[C@H](CCCCN)NC(=O)[C@@H]2CCCN2C(=O)[C@H]([C@@H](C)O)NC(=O)CNC(=O)[C@H](CC(=O)O)NC(=O)CNC(=O)[C@H](Cc2c[nH]c3ccccc23)NC(=O)[C@H](Cc2ccccc2)NC(=O)[C@H]([C@@H](C)O)NC(=O)[C@H]([C@@H](C)O)NC(=O)[C@H](CCC(=O)O)NC(=O)[C@H](CC(C)C)NC(=O)[C@H](Cc2c[nH]cn2)NC(=O)[C@H]([C@@H](C)O)NC(=O)[C@H](CCC(N)=O)NC(=O)CNC(=O)[C@H]2CCCN2C(=O)[C@H](CCC(N)=O)NC(=O)[C@H]([C@@H](C)O)NC(=O)[C@H](C(C)C)NC(=O)[C@H](CCCNC(=N)N)NC1=O [compound 163] (cyclo(THLETTFWGDGTPKTIRVTQ[dP]GQ)),half-life at 100 μM,"plasmin; plasmin (isolated protease, 10 μg/mL) in PBS",1.4 h
THLETTFTGDGTPKTIRVTQpGQE (THLETTFTGDGTPKTIRVTQ[dP]GQE) [SEQ ID NO: 137],affinity (Kd) by ITC,"PSD-95-PDZ2 [1]; 25° C., tested up to 100 μM",did not show binding
